From patent US9822115B2, “Nitrogen containing compounds and their use as antibacterial agents” (WOCKHARDT LIMITED, priority 2014, dated 2017) come the findings set out here.

Experiment [1] deals with E. coli NCTC 13353 (CTX-M15, OXA-1). Briefly: Antibacterial activity, MIC by agar dilution (CLSI). The class given is cell-based. Conditions: Escherichia coli. The method, then:
(§1) The biological activity of representative compounds according to the invention against various bacterial strains was investigated. In a typical study, overnight grown bacterial cultures were diluted appropriately and inoculated on the agar media containing doubling dilutions of the test compounds. Observations for growth or no growth was performed after 16-20 hours of incubation at 35±2° C. in the ambient air. The overall procedure was performed as per Clinical and Laboratory Standards Institute (CLSI) recommendations, (Clinical and Laboratory Standards Institute (CLSI), Performance Standards for Antimicrobial Susceptibility Testing, 20th Informational Supplement, M07-A9, Volume 32, No. 2, 2012). Molten Mueller Hinton Agar (BD, USA) containing serial dilutions of each antibacterial agent were poured on to the plates and allowed to solidify. Appropriate suspensions from the freshly grown cultures were prepared in normal saline so that about 10^4 CFU/spot of the organism was delivered on to the drug containing agar plates using automated multipoint inoculator (Mast, UK). The plates were incubated in Biochemical oxygen demand (BOD) incubator at 37° C. for 18 hours and then examined for growth.
Table 2 details the antibacterial activity of representative compounds according to invention, against various Multi Drug Resistant (MDR) Gram-negative bacterial strains. The strains selected for study included E. coli NCTC 13353 producing CTX-M15 and OXA-1 beta-lactamase enzymes; K. pneumoniae H521 producing KPC, SHV, TEM beta-lactamase enzymes; and K. pneumoniae S48 producing NDM, SHV, TEM beta-lactamase enzymes. The activities are expressed as Minimum Inhibitory Concentrations (MICs) (mcg/ml).

For experiment [2], the system named is K. pneumoniae H521 (KPC, SHV, TEM). Described as above. The class given is cell-based. The settings on record: Klebsiella pneumoniae. As to the method: as §1
(§2) The strains selected for study included E. coli NCTC 13353 producing CTX-M15 and OXA-1 beta-lactamase enzymes; K. pneumoniae H521 producing KPC, SHV, TEM beta-lactamase enzymes; and K. pneumoniae S48 producing NDM, SHV, TEM beta-lactamase enzymes. The activities are expressed as Minimum Inhibitory Concentrations (MICs) (mcg/ml).

Experiment [3] has as its system K. pneomoniae S48 (NDM, SHV, TEM). The description is as above. The class given is cell-based, K. pneumoniae. Conditions: Klebsiella pneumoniae. The method, then:
as §1, §2

For experiment [4], the target named is T1, Class A beta-lactamase, K. pneumoniae ATCC 700603 (SHV 18) (Klebsiella pneumoniae, UniProt P0AD64, E235K/G234A/R39S).
T1 construct: preincubated mixture of crude enzyme and the agents; endogenous in cells; host or cells: K. pneumoniae ATCC 700603
T1 sequence (P0AD64 22-286 R39S/G234A/E235K): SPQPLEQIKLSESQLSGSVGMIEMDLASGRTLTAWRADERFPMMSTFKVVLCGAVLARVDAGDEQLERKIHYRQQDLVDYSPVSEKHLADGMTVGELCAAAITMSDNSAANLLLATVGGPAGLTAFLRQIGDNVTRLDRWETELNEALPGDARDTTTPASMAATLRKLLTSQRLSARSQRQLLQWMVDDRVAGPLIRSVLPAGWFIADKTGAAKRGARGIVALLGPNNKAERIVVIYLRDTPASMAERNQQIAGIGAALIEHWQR
Briefly: biochemical. As to the method:
(§3) Determination of enzyme inhibition activity: Concentration of the inhibitor required to inhibit 50% of enzymatic activity was measured by adding a chromogenic substrate, Nitrocefin (100 uM, 5 min) to the preincubated mixture of crude enzyme and the agents (37° C., 10 min). Absorbance was measured at 485 nm by UV-spectrophotometer. The IC50 was calculated by plotting absorbance against concentration through Sigmoidal dose response curve using Graph Pad software.
(§4) The enzyme inhibition was expressed as IC50.

Experiment [5] has as its system T2, Class C beta-lactamase, E. coli M50 (CMY/DHA).
T2 construct: no borders, tags or purification printed
It counts as biochemical. Conditions: read-out: Beta-lactamase enzyme inhibition IC50. As to the method:
as §3, §4

Experiment [6] has as its target T3, Class D beta-lactamase, A. baumannii NCTC 13301 (OXA 23) (Acinetobacter baumannii, UniProt Q9L4P2).
T3 construct: preincubated mixture of crude enzyme and the agents; endogenous in cells; host or cells: A. baumannii NCTC 13301
Briefly: Beta-lactamase enzyme inhibition (nitrocefin, crude enzyme). Conditions: Class D A. baumannii NCTC 13301 (OXA 23); read-out: Beta-lactamase enzyme inhibition IC50. It counts as biochemical. The method, then: as §3, §4

The mark [7] stands for this setting: NCTC13353, Table 2, E. Coli NCTC 13353 (CTX-M15, OXA-1), read-out: MIC.
Setting [8] is: Table 2, K. pneumoniae H521 (KPC, SHV, TEM), read-out: MIC.
Setting [9] is: Table 2, K. pneomoniae S48 (NDM, SHV, TEM), read-out: MIC.

≈ marks a conversion by molar mass, not a printed value. Like-named read-outs stand apart in the source and are kept apart here.

T3 sequence (Q9L4P2 18-273): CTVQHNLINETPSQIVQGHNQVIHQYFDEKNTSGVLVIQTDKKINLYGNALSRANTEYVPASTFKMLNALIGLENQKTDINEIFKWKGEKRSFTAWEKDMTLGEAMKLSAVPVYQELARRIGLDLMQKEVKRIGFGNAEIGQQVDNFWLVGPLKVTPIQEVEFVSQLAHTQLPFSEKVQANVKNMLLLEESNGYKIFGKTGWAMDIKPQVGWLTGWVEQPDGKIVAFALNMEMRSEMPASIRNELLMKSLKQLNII

Take `C[C@H](N)COc1ccccc1CC(=O)NNC(=O)[C@@H]1CC[C@@H]2CN1C(=O)N2OS(=O)(=O)O` [Example 40, (2S,5R)-sulfuric acid mono-[2-(N′-{2-[2-((S)-2-amino-propoxy)-phenyl]-acetyl}-hydrazinocarbonyl)-7-oxo-1,6-diaza-bicyclo[3.2.1]oct-6-yl]ester]: the minimal inhibitory concentration (MIC) in experiment [1] (setting [7]), in experiment [2] (setting [8]) and in experiment [3] (setting [9]) was 2 µg/mL (≈ 4.24 µM) throughout. Further, the IC50 was determined as 110 nM in experiment [4], 99 nM in experiment [5] and 1570 nM in experiment [6].

Turning to `NCCCOc1cccc(CC(=O)NNC(=O)[C@@H]2CC[C@@H]3CN2C(=O)N3OS(=O)(=O)O)c1` [Example 35, (2S,5R)-sulfuric acid mono-[2-(N′-{2-[3-(3-amino-propoxy)-phenyl]-acetyl}-hydrazinocarbonyl)-7-oxo-1,6-diaza-bicyclo[3.2.1]oct-6-yl]ester], the results for the MIC in experiment [1] (setting [7]), in experiment [2] (setting [8]) and in experiment [3] (setting [9]) were 0.5 µg/mL (≈ 1.06 µM), 1 µg/mL (≈ 2.12 µM) and 0.5 µg/mL (≈ 1.06 µM), respectively. Besides, the IC50 amounted to 712 nM in experiment [4], 38 nM in experiment [5] and 1910 nM in experiment [6].

As for `O=C(Cc1ccc(OC[C@@H]2CCCN2)cc1)NNC(=O)[C@@H]1CC[C@@H]2CN1C(=O)N2OS(=O)(=O)O` [Example 61, (2S,5R)-sulfuric acid mono-[2-(N′-{2-[4-((S)-pyrrolidin-2-ylmethoxy)-phenyl]-acetyl}-hydrazinocarbonyl)-7-oxo-1,6-diaza-bicyclo[3.2.1]oct-6-yl]ester], the figures for the MIC in experiment [1] (setting [7]), in experiment [2] (setting [8]) and in experiment [3] (setting [9]) were 1 µg/mL (≈ 2.01 µM), 2 µg/mL (≈ 4.02 µM) and 1 µg/mL (≈ 2.01 µM), respectively. For the same molecule, the concentration for half-maximal inhibition (IC50) in experiment [4] came out at 71 nM; in experiment [5] it was 29 nM; in experiment [6], 690 nM.

With `C[C@@H](N)COc1cccc(CC(=O)NNC(=O)[C@@H]2CC[C@@H]3CN2C(=O)N3OS(=O)(=O)O)c1` [Example 42, (2S,5R)-sulfuric acid mono-[2-(N′-{2-[3-((R)-2-amino-propoxy)-phenyl]-acetyl}-hydrazinocarbonyl)-7-oxo-1,6-diaza-bicyclo[3.2.1]oct-6-yl]ester], the results for the minimum inhibitory concentration (MIC) in experiment [1] (setting [7]), in experiment [2] (setting [8]) and in experiment [3] (setting [9]) were 1 µg/mL (≈ 2.12 µM), 1 µg/mL (≈ 2.12 µM) and 0.5 µg/mL (≈ 1.06 µM), respectively. Further, the IC50 in experiment [4] was found to be 36 nM; in experiment [5], 32 nM; in experiment [6], 1230 nM.

With `NCCOc1cccc(CC(=O)NNC(=O)[C@@H]2CC[C@@H]3CN2C(=O)N3OS(=O)(=O)O)c1` [Example 32, (2S,5R)-sulfuric acid mono-[2-(N′-{2-[3-(2-amino-ethoxy)-phenyl]-acetyl}-hydrazinocarbonyl)-7-oxo-1,6-diaza-bicyclo[3.2.1]oct-6-yl]ester], the MIC in experiment [1] (setting [7]), in experiment [2] (setting [8]) and in experiment [3] (setting [9]) was 0.5 µg/mL (≈ 1.09 µM) each time. For the same molecule, the results for the half-maximal inhibitory concentration (IC50) in experiment [4], in experiment [5] and in experiment [6] were 76 nM, 33 nM and 1770 nM, respectively.

Take `NCCOc1ccc(CC(=O)NNC(=O)[C@@H]2CC[C@@H]3CN2C(=O)N3OS(=O)(=O)O)cc1` [Example 30, (2S,5R)-sulfuric acid mono-[2-(N′-{2-[4-(2-amino-ethoxy)-phenyl]-acetyl}-hydrazinocarbonyl)-7-oxo-1,6-diaza-bicyclo[3.2.1]oct-6-yl]ester]: the MIC in experiment [1] (setting [7]) worked out at 0.5 µg/mL (≈ 1.09 µM); in experiment [2] (setting [8]), 2 µg/mL (≈ 4.37 µM); in experiment [3] (setting [9]), 0.5 µg/mL (≈ 1.09 µM). Further, the figures for the IC50 in experiment [4], in experiment [5] and in experiment [6] were 7 nM, 36 nM and 451 nM, respectively.

For the molecule `O=C(Cc1ccccc1O[C@H]1CCNC1)NNC(=O)[C@@H]1CC[C@@H]2CN1C(=O)N2OS(=O)(=O)O` [Example 63, (2S,5R)-sulfuric acid mono-[2-(N′-{2-[2-((S)-pyrrolidin-3-oxy)-phenyl]-acetyl}-hydrazinocarbonyl)-7-oxo-1,6-diaza-bicyclo[3.2.1]oct-6-yl]ester], the results for the MIC in experiment [1] (setting [7]), in experiment [2] (setting [8]) and in experiment [3] (setting [9]) were 2 µg/mL (≈ 4.14 µM), 8 µg/mL (≈ 16.5 µM) and 2 µg/mL (≈ 4.14 µM), respectively. Besides, the half-inhibitory concentration (IC50) in experiment [4] was 79 nM; in experiment [5], 102 nM; in experiment [6], 4120 nM.

Take `C[C@H](N)COc1ccc(CC(=O)NNC(=O)[C@@H]2CC[C@@H]3CN2C(=O)N3OS(=O)(=O)O)c(F)c1` [Example 44, (2S,5R)-sulfuric acid mono-[2-(N′-{2-[2-fluoro-4-((S)-2-amino-propoxy)-phenyl]-acetyl}-hydrazinocarbonyl)-7-oxo-1,6-diaza-bicyclo[3.2.1]oct-6-yl]ester]: the figures for the MIC in experiment [1] (setting [7]), in experiment [2] (setting [8]) and in experiment [3] (setting [9]) were 1 µg/mL (≈ 2.04 µM), 2 µg/mL (≈ 4.09 µM) and 1 µg/mL (≈ 2.04 µM), respectively. Also, the half-maximal inhibitory concentration (IC50) in experiment [4] turned out to be 58 nM; in experiment [5] it was 31 nM; in experiment [6] it was 561 nM.

In the case of `CC(C)[C@H](N)C(=O)Oc1ccc(CC(=O)NNC(=O)[C@@H]2CC[C@@H]3CN2C(=O)N3OS(=O)(=O)O)cc1` [Example 24, (S)-2-amino-3-methyl-butyric acid 4-{2-oxo-2-[N′-((2S,5R)-7-oxo-6-sulphooxy-1,6-diaza-bicyclo[3.2.1]octane-2-carbonyl)-hydrazino]ethyl}-phenyl ester], the MIC in experiment [1] (setting [7]) turned out to be 1 µg/mL (≈ 1.95 µM); in experiment [2] (setting [8]), 4 µg/mL (≈ 7.79 µM); in experiment [3] (setting [9]), 0.5 µg/mL (≈ 0.974 µM). Besides, the figures for the IC50 in experiment [4], in experiment [5] and in experiment [6] were 2 nM, 5 nM and 151 nM, respectively.

Take `C[C@H](N)C(=O)Oc1ccc(CC(=O)NNC(=O)[C@@H]2CC[C@@H]3CN2C(=O)N3OS(=O)(=O)O)cc1` [Example 23, (S)-2-amino-propionic acid 4-{2-oxo-2-[N′-((2S,5R)-7-oxo-6-sulphooxy-1,6-diaza-bicyclo[3.2.1]octane-2-carbonyl)-hydrazino]ethyl}-phenyl ester]: the MIC in experiment [1] (setting [7]) was found to be 0.5 µg/mL (≈ 1.03 µM); in experiment [2] (setting [8]) it was 2 µg/mL (≈ 4.12 µM); in experiment [3] (setting [9]) it was 0.5 µg/mL (≈ 1.03 µM). The 50% inhibitory concentration (IC50) in experiment [4] worked out at 3 nM; in experiment [5], 23 nM; in experiment [6], 240 nM.

For the molecule `CC(C)[C@H](N)COc1ccccc1CC(=O)NNC(=O)[C@@H]1CC[C@@H]2CN1C(=O)N2OS(=O)(=O)O` [Example 50, (2S,5R)-sulfuric acid mono-[2-(N′-{2-[2-((S)-2-amino-3-methyl-butoxy)-phenyl]-acetyl}-hydrazinocarbonyl)-7-oxo-1,6-diaza-bicyclo[3.2.1]oct-6-yl]ester], the results for the minimum inhibitory concentration (MIC) in experiment [1] (setting [7]), in experiment [2] (setting [8]) and in experiment [3] (setting [9]) were 16 µg/mL (≈ 32 µM), over 32 µg/mL and 16 µg/mL (≈ 32 µM), respectively. The figures for the IC50 in experiment [4], in experiment [5] and in experiment [6] were 79 nM, 77 nM and 1170 nM, respectively.

In the case of `CC(C)[C@H](N)COc1ccc(CC(=O)NNC(=O)[C@@H]2CC[C@@H]3CN2C(=O)N3OS(=O)(=O)O)cc1` [Example 54, (2S,5R)-sulfuric acid mono-[2-(N′-{2-[4-((S)-2-amino-3-methyl-butoxy)-phenyl]-acetyl}-hydrazinocarbonyl)-7-oxo-1,6-diaza-bicyclo[3.2.1]oct-6-yl]ester], the MIC in experiment [1] (setting [7]) was 1 µg/mL (≈ 2 µM); in experiment [2] (setting [8]), 8 µg/mL (≈ 16 µM); in experiment [3] (setting [9]), 1 µg/mL (≈ 2 µM). For the same molecule, the IC50 in experiment [4] came to 37 nM; in experiment [5], 40 nM; in experiment [6], 625 nM.

On to `Nc1ccc(CC(=O)NNC(=O)[C@@H]2CC[C@@H]3CN2C(=O)N3OS(=O)(=O)O)cc1` [Example 11, (2S,5R)-sulfuric acid mono-[2-(N′-(4-aminophenyl-acetyl)-hydrazinocarbonyl)-7-oxo-1,6-diaza-bicyclo[3.2.1]oct-6-yl]ester], for which the MIC in experiment [1] (NCTC13353) stood at 0.5 µg/mL (≈ 1.21 µM); in experiment [2] it was 1 µg/mL (≈ 2.42 µM); in experiment [3], 1 µg/mL (≈ 2.42 µM). Further, the half-maximal inhibitory concentration (IC50) in experiment [4] is 32 nM; in experiment [5] it was 10 nM; in experiment [6] it was 408 nM.
